Measured values from patent US9119805B2, “Therapy and prevention of problem drinking” (THE UNIVERSITY OF SYDNEY, priority 2009, dated 2015).
Entries after “also recorded” stand apart in the source; their conditions may differ.

Experiments:
[1] = tested on: alcohol-dependent adults and non-dependent problem drinkers; experiment: Human Study 3: chronic (4 week) intranasal oxytocin, double-blind placebo-controlled; assay type: in vivo
Method: In a third clinical study in humans, a double-blind, randomized and placebo-controlled study is conducted to determine the effect(s) of intranasal oxytocin therapy on alcohol self-administration in a population of alcohol-dependent adults and in a population of non-dependent problem drinkers. This study determines safety and efficacy of chronic intranasal oxytocin therapy for problem drinking.
At least 30 male and female alcohol-dependent adults and non-dependent problem drinkers are recruited according to the protocols described in the preceding examples hereof, to participate in a trial investigating chronic (4 week) intranasal oxytocin therapy for problem drinking e.g., alcohol-dependent subjects having a current diagnosis of alcohol dependence according to the Diagnostic and Statistical Manual of Mental Disorders, Fourth Edition (DSM-IV) as determined by the Structured Clinical Interview for the DSM-IV (SCID-IV), and non-dependent subjects scoring higher than 8 on AUDIT. Exclusion criteria are as indicated in the preceding examples.
All subjects are tested for baseline SCID-IV, AUDIT, PDQ, 90-day TLFB, DASS-21, PANAS, AUQ, FTND, body mass index (BMI), urine toxicology, bloods for baseline oxytocin and cortisol, liver function testing, heart rate (HR), blood pressure (BP), and ECG, and females are pregnancy-tested and their menstrual cycles determined, as described herein above for Study 2. Neuropsychological evaluations e.g., according to CANTAB are also performed. Additionally, subjects are subjected to attention bias assessment task testing, wherein attention biases to alcohol-related cues are determined using e.g., stroop and dot-probe methodology. Subjects also participate in a reward learning computer task, to assess motivation for their alcohol consumption. Based on their test results, subjects are selected for recruitment in the study.
Recruited subjects are administered placebo or oxytocin intranasally (80 IU per day: 40 IU at 9:00 am and 40 IU at 9:00 pm) over a period of 28 days, following completion of baseline measurements. Subjects are instructed on self-administration procedures and given an initial 14 day supply of medication. Participants attend a mid-point assessment where they will receive the remaining 14 day supply of medication. Drug administration commences on the evening of the day of the clinical and medical interview and ceases on a morning 28 days later, after 56 doses have been administered. Subjects are randomized to oxytocin-receiving or placebo-receiving groups, and the groups are stratified according to gender, age, and drinking behavior.
Recruited subjects are also fitted with an actigraphy watch and complete a sleep diary over the following two week period. The actigraphy watches provide information on sleep/wake cycles and light exposure which play an important role in the psychopathology of alcohol misuse. Participants also complete daily self-tests of drinking behavior (AUQ), mood (PANAS), and report on adverse effects of medication. All participants are contacted weekly beginning after 3 days from the commencement of therapy, to determine compliance and adverse events.
Subjects returning to the BMRI on the afternoon of the 14th day of testing are evaluated i.e., the mid-point assessment. Bloods are taken for analysis of plasma oxytocin and cortisol levels as well as basic pathology including liver function and compared to baseline levels before commencement of drug dosing. A urine toxicology test and alcohol breathalyzer test are also performed, to determine whether subjects have been alcohol-free and drug-free at the time of testing. Subjects are tested according to DASS-21, PANAS, 14-day TLFB, and AUQ, and neuropsychological evaluations e.g., according to CANTAB are performed. Changes in mood, drinking behavior and neuropsychology are evaluated for both groups by comparison with baseline evaluations. […]

Male Wistar rats = experiment: Home-cage free access to 4.5% ethanol beer after oxytocin prophylaxis (Example 3, FIGS. 5-7); assay type: in vivo, rat
Method: Male Wistar rats (n=48) were obtained from the Animal Resource Centre (ARC), Perth, Western Australia, Australia. The animals were of early adolescent age (i.e., 21 days-old) on arrival and were young adults (i.e., 33 days-old) when oxytocin therapy commenced. The animals were housed and maintained as described in the preceding examples, except that animals were moved to individual housing during chronic exposure to alcohol.
One-half of the rats (n=24) were administered 10 injections of 1 mg/kg oxytocin (1×I/P injection per day for a total of 10 days). The other half of the rats (n=24) received equivalent injections of placebo/vehicle lacking oxytocin.
A subset of the treated rats (n=8 per condition) were exposed to alcohol in the lickometer apparatus over a 10 day period. On the first day of testing, animals were exposed to a 70 min session in the lickometer during which a low-alcohol near-beer was provided at both lick tubes (Birell's Premium, containing 0.5% alcohol). On subsequent days, animals were exposed to further 70 min test sessions during which near-beer supplemented with increasing amounts of absolute ethanol were provided at both lick tubes i.e., to produce a beer comprising 1.5%, 2.5%, 3.5% and finally 4.5% ethanol. The concentration of ethanol was then maintained at 4.5% for all subsequent testing.
After 9 days of lickometer testing, the rats were given free access to 4.5% ethanol containing beer for a 24-day period in their home cages. Standard rat chow and tap water were also available in the home cages. Alcohol intakes and body weights were measured daily.

[2] = dosing period and follow-up, than before therapy
[3] = intranasal 80 IU per day for 28 days
[4] = FIG. 6 panel A, start of exposure

CC[C@H](C)[C@@H]1NC(=O)[C@H](Cc2ccc(O)cc2)NC(=O)[C@@H](N)CSSC[C@@H](C(=O)N2CCC[C@H]2C(=O)N[C@@H](CC(C)C)C(=O)NCC(N)=O)NC(=O)[C@H](CC(N)=O)NC(=O)[C@H](CCC(N)=O)NC1=O [oxytocin]
criteria for problem drinking ([1]; at 3-month or 6-month or 12-month follow-up): do not meet the criteria for problem drinking
heavy drinking days ([1]; dosing period and 3-, 6-, 12-month follow-up, than before therapy): fewer heavy drinking days
cognitive biases to alcohol-related cues ([1]; dosing period and follow-up): reduced cognitive biases
liver function, BMI, and heart function ([1]; dosing period and follow-up): gradually improved
reward driven motivation to consume alcohol ([1]; dosing period and follow-up): reduced reward driven motivation
abstinent days [1, 2]: more abstinent days
period of time between heavy drinking days [1, 2]: longer period of time between heavy drinking days
alcohol intake [1, 3]: reduced alcohol intake
short-term memory function and general mood [1, 3]: enhanced short-term memory function and general mood
impulsivity ([1]; intranasal 80 IU per day for 28 days, dependent and non-dependent drinkers): decreased impulsivity
sleep behavior ([1]; throughout the medication dosing period): improved sleep behavior
average daily intake of full strength beer (Male Wistar rats; FIG. 5, final oxytocin injection about 30 days before exposure to alcohol, versus placebo): significantly reduced alcohol consumption; also recorded: consistently less alcohol intake
consumption of water (Male Wistar rats; FIG. 6, same period): did not significantly modify consumption of water; also recorded: unchanged
escalation of alcohol consumption / alcohol intake (Male Wistar rats; FIG. 6, 10 daily IP injections ending about 21 days before 24 days beer exposure, versus saline vehicle): significantly reduced an escalation of alcohol consumption; also recorded: consistently less alcohol intake
ethanol consumption after marginal increase (Male Wistar rats; FIG. 6 panel A, over 24 days): 10-10.8 g/kg of pure ethanol per day
initial beer consumption (Male Wistar rats; [4]): about 110 ml of beer per day
initial ethanol consumption (Male Wistar rats; [4]): about 9 g/kg of pure ethanol per day
reduction of initial alcohol consumption (Male Wistar rats; FIG. 6 panel A, versus animals without oxytocin): about 10%
total consumption of full strength beer (Male Wistar rats; FIG. 7 panel A, final week of the experiment, versus saline vehicle): significantly reduced later consumption of alcohol
total water consumption (Male Wistar rats; FIG. 7 panel B, final week): no significant difference in total water consumption
alcohol consumed with free access to full strength beer in home cages (Male Wistar rats; FIGS. 5-7, versus placebo): consumed consistently less alcohol
body weight and food intake (Male Wistar rats; oxytocin pre-treated rats versus controls, FIG. 5 experiment): same body weight and food intake as controls
general health (Male Wistar rats; oxytocin pre-treated rats, FIG. 5 experiment): appeared healthy
